Measurements: publication PMC4033217, “Characterization of Novel PI3Kδ Inhibitors as Potential Therapeutics for SLE and Lupus Nephritis in Pre-Clinical Studies” (Frontiers in Immunology, 2014)

Key:
[1] = tested on: BXSB mice; design: method as in PMID 24445960; details: cited from earlier work
[2] = tested on: CD69 on B220+ B cells; assay: Ex vivo anti-IgD-induced CD69 up-regulation in the SLE model; design: species or system mouse; details: once daily for 2 weeks, 1 h after last dosing
[3] = tested on: NZB/W F1 mice; assay: Lymphocyte subsets in spleen at end of treatment, accelerated NZB/W F1 SLE model; assay type: in vivo, mouse; details: MMF 300 mg/kg once daily, early intervention
Method: (§1) All protocols and procedures were conducted according to German animal protection law (Tierschutzgesetz) and were approved by the local veterinarian authorities (Regierungspräsidium, Darmstadt, Germany). Ten-week-old female NZB/W F1 mice (Jackson Laboratories, Bar Harbor, ME, USA) were given a single i.v. injection of 1 × 10^8 IU/100 μl of AdV-IFN-α (adenovirus with mmIfna5_v1 insert, Biofocus, CoA.NL.09.160) in saline or left untreated (sham). Drug treatments were either initiated at 2 weeks (early intervention regimen) or 4 weeks (late intervention regimen) post AdV-IFN-α delivery until the end of the experiment (at 10 weeks). […] Serum and urine samples were collected for anti-dsDNA antibodies (by ELISA) and urinary protein creatinine ratio (UPCR) (measured by ADVIA 1800) determination, respectively, on the days indicated. Proteinuria is defined as UPCR >3.

[4] = tested on: NZB/W F1 mice; assay: IFNα-accelerated NZB/W F1 mouse SLE model; assay type: in vivo
Method: as §1

SMILES | Autoantibody production and kidney pathology [1] | Ex vivo anti-IgD-induced CD69 surface expression on B220+ B cells [2] | No. of cells (×10^6) (mean ± SD): B220^+CD19^+ (total B cells) [3] | No. of cells (×10^6) (mean ± SD): CD3^+ (total T-cells) [3] | No. of cells (×10^6) (mean ± SD): CD138^+ (plasma cells) [3] | No. of cells (×10^6) (mean ± SD): GL-7^+IgG^− (GC B cells) [3] | No. of cells (×10^6) (mean ± SD): IgG^+ (class-switched B cells) [3] | No. of cells (×10^6) (mean ± SD): Total splenocytes [3] | No. of cells (×10^6) (mean ± SD): activated CD4^+ T-cells [3] | No. of cells (×10^6) (mean ± SD): activated CD8^+ T-cells [3] | Protection against proteinuria ([4]; early intervention, MSC2360844 66 mg/kg or MMF 300 mg/kg once daily oral) | Serum anti-dsDNA IgG ([4]; early treatment, neither statistically significant nor dose-dependent)
Cc1ccccc1-n1c(Cn2cnc3c(N)ncnc32)nc2cccc(C)c2c1=O [IC87114] | decreases autoantibody production and kidney pathology | – | – | – | – | – | – | – | – | – | – | –
COc1c(C)c2c(c(O)c1C/C=C(\C)CCC(=O)OCCN1CCOCC1)C(=O)OC2 [MMF, mycophenolate mofetil] | – | indistinguishable from untreated mice | 20.65 (±6.54) ×10^6 | 21.05 (±6.83) ×10^6 | 0.43 (±0.28) ×10^6 | 0.23 (±0.16) ×10^6 | 0.17 (±0.05) ×10^6 | 46.50 (±25.17) ×10^6 | 5.24 (±2.05) ×10^6 | 0.23 (±0.09) ×10^6 | almost completely protected against proteinuria | tendency of serum anti-dsDNA IgG reduction
